A short description of data set [1]: Viscosity (ROTOVISCO RV100CV100-LV100, sensor ZB15). It counts as physicochemical. The source says:
^b) Calculated with ROTOVISCO^(R) RV100CV100-LV100, sensor ZB15.

The conditions of data set [2]: water.
A short description of a further data set: physchem. Conditions: water.
Data set [3] in a line: Osmolality (steampressure osmometer Wescor mod 5500). Type of data set: physicochemical. From the text:
^a) Calculated with a steampressure osmometer Wescor(R) mod 5500,
calibrated with NaCl aqueous solutions.

Regarding `CC(=O)N(CC(=O)NCC(O)CNC(=O)CN(C(C)=O)c1c(I)c(C(=O)NCC(O)CO)c(I)c(C(=O)NCC(O)CO)c1I)c1c(I)c(C(=O)NCC(O)CO)c(I)c(C(=O)NCC(O)CO)c1I` (centres unmarked) [5,5'-[(2-hydroxy-1,3-propanediyl)bis [imino(2-oxo-2,1-ethanediyl)acetylimino]]bis[N,N'-bis(2,3-dihydroxypropyl)-2,4,6-triiodo-1,3-benzenedicarboxyamide]], the “Viscosity at 20° C.” value is given as 5,7 mPa·s in data set [1] (200 mgI/ml), 24 mPa·s in data set [1] (300 mgI/ml) and 112 mPa·s in data set [1] (400 mgI/ml). Moreover, the “Viscosity at 37° C.” value in data set [1] (200 mgI/ml) is reported as 3,4 mPa·s; in data set [1] (300 mgI/ml), 12 mPa·s; in data set [1] (400 mgI/ml) it was 41 mPa·s. For the same compound, the “Solubility in H2 O at 30° C.” value in data set [2] is listed as above 100 g in 100 ml. In “physchem”, the solubility is above 1000 mg/mL. Also, the Osmolality in data set [3] (200 mgI/ml) is 0,17 osmol/kg H2 O; in data set [3] (300 mgI/ml) it was 0,25 osmol/kg H2 O; in data set [3] (400 mgI/ml), 0,72 osmol/kg H2 O.

The solubility is the concentration that dissolves in the medium under given conditions.
